Data on 17 compounds can be found in ChEMBL document CHEMBL1135450, “Discovery of phenyl alanine derived ketoamides carrying benzoyl residues as novel calpain inhibitors” (Bioorg Med Chem Lett, 2002).

Where a SMILES comes first, the peptide text is derived from it. [ ]: non-standard residue; d: D form. The star is where a group is joined. ξ: configuration not given here. ξF = NC(Cc1ccccc1)C(=O)O; Cbz = O=C(OCc1ccccc1)*

Chain of Procathepsin L (P07711 whole entry): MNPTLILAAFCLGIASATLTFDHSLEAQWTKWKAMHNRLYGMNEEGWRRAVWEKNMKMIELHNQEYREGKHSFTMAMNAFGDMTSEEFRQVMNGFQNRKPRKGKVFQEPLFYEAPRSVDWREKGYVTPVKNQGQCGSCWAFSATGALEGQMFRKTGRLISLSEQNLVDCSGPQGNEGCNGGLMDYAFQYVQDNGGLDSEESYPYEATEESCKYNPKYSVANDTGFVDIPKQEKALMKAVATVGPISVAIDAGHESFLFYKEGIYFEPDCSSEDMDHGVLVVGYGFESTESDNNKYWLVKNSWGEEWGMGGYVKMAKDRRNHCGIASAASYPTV

The first experiment concerns the target Cathepsin B (Homo sapiens, UniProt P07858). Put plainly: Inhibition of cathepsin B.
Compound `NC(=O)C(=O)C(Cc1ccccc1)NC(=O)c1ccccc1/C=C/c1ccc2ccccc2c1` (stereo not given) yielded a Ki of 99 nM.

The next experiment has as its target Procathepsin L (Homo sapiens, UniProt P07711). The experiment can be described thus: The compound was evaluated for inhibition of cathepsin L.
The compound `NC(=O)C(=O)C(Cc1ccccc1)NC(=O)c1ccccc1/C=C/c1ccc2ccccc2c1` (stereo not given) gave a Ki of 6.1 µM.

Tested on in the next experiment: not listed separately
Put plainly: Inhibition of calpain-mediated p60 c-Src degradation in human thrombocytes. The format is functional, cell-based.
As to `CC(C)[C@H](NC(=O)OCc1ccccc1)C(=O)NC(C=O)Cc1ccccc1` (stereo partly drawn) (Cbz-Val-[ξF]-aldehyde), the IC50 amounted to 700 nM. `NC(=O)C(=O)C(Cc1ccccc1)NC(=O)c1ccccc1/C=C/c1ccc2ccccc2c1` (stereo not given) had an IC50 of 1400 nM.

Another experiment deals with T1, Calpain-1 catalytic subunit (Homo sapiens, UniProt P07384).
T1 sequence (P07384 whole entry): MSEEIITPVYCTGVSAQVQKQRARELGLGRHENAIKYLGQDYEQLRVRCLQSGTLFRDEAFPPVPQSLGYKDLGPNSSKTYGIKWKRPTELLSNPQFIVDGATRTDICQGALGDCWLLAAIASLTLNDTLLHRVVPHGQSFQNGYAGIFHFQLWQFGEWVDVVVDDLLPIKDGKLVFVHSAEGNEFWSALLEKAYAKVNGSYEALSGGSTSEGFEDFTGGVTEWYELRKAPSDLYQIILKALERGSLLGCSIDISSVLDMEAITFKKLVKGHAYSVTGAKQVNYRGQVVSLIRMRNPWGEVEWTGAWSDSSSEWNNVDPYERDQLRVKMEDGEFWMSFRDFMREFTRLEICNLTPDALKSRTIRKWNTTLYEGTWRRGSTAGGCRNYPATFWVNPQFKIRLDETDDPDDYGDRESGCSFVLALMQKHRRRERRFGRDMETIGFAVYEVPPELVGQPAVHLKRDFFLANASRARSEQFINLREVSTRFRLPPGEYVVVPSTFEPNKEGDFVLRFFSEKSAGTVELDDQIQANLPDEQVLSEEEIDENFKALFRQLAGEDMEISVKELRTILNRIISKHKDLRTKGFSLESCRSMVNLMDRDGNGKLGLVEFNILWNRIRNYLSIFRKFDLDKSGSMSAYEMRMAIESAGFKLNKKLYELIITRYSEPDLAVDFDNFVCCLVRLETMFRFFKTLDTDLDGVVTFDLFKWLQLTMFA
Put plainly: Inhibition of calpain, using human mu-calpain isolated from erythrocytes and Suc-Leu-Tyr-AMC as the fluorogenic substrate. The class given is cell-free.
The compound `O=CC(Cc1ccccc1)NC(=O)c1ccccc1CCc1ccccc1` (stereo not given) registered a Ki of 280 nM. This lies in the sub-micromolar range. With `NC(=O)C(=O)C(Cc1ccccc1)NC(=O)c1ccccc1/C=C/c1ccc2ccccc2c1` (stereo not given), the affinity corresponds to a Ki of 6 nM.

With `O=CC(Cc1ccccc1)NC(=O)c1ccccc1/C=C/c1ccccc1` (stereo not given), the affinity corresponds to a Ki of 140 nM. Same read-out and setting: the result for `O=CC(Cc1ccccc1)NC(=O)c1ccccc1/C=C/c1ccc2ccccc2c1` (stereo not given) reads 15 nM. The compound `O=CC(Cc1ccccc1)NC(=O)c1ccccc1-c1ccccc1` (stereo not given) returned an inhibition constant (Ki) of 90 nM. On the same count and under the same terms, the result for `O=CC(Cc1ccccc1)NC(=O)c1ccccc1COc1ccccc1` (stereo not given) reads 450 nM; that for `O=CC(Cc1ccccc1)NC(=O)c1ccccc1Oc1ccccc1` (stereo not given), 50 nM; that for `O=CC(Cc1ccccc1)NC(=O)c1ccccc1Cc1ccc2ccccc2c1` (stereo not given), 200 nM. `O=CC(Cc1ccccc1)NC(=O)c1ccccc1C#Cc1ccccc1` (stereo not given): the Ki was determined as 450 nM. Compound `COc1ccc(/C=C/c2ccccc2C(=O)NC(C=O)Cc2ccccc2)cc1OC` (stereo not given) returned a Ki of 40 nM. Compound `O=CC(Cc1ccccc1)NC(=O)c1ccccc1` (stereo not given) displayed a Ki of 1080 nM. On to `O=CC(Cc1ccccc1)NC(=O)c1ccccc1OCc1ccc2ccccc2c1` (stereo not given), for which affinity was put at a Ki of 50 nM. This Ki is about 22-fold lower than that of the compound before. In turn, `O=CC(Cc1ccccc1)NC(=O)c1ccccc1Cc1ccccc1` (stereo not given) yielded a Ki of 370 nM. In the case of `NC(=O)C(=O)C(Cc1ccccc1)NC(=O)c1ccccc1-c1ccccc1` (stereo not given), the affinity, expressed as Ki, was 40 nM. The same measure, in the same setting: the result for `O=CC(Cc1ccccc1)NC(=O)c1ccccc1C(=O)c1ccccc1` (stereo not given) reads 230 nM; that for `COc1ccc(/C=C/c2ccccc2C(=O)NC(Cc2ccccc2)C(=O)C(N)=O)cc1OC` (stereo not given), 80 nM.

By Ki is commonly meant the dissociation constant of the complex between target and ligand, obtained from inhibition or displacement. Low values mean tighter binding, high ones weaker binding. As usually defined, the IC50 is the concentration that inhibits the measured activity by half. A lower IC50 goes with greater potency in that assay.
